Assay [1] has as its target T1, recombinant human SYK360-635 (Homo sapiens, UniProt P43405).
T1 construct: truncated construct of Spleen Tyrosine Kinase aa 360-635; made in house
The assay can be described thus: SYK kinase assay, 33P ATP filtration (ENZYME_FILTRATION_IC50). It is filed as biochemical. Particulars: SYK aa 360-635 0.5 nM, ATP 20 μM, peptide 5 μM, 30° C. 15 min. The method, then:
Determination of IC50 of Spleen Tyrosine Kinase (SYK) Inhibition:
SYK kinase assay is a standard kinase assay adapted to a 96 well plate format. This assay is performed in 96-well format for IC50 determination with […] which represented 10 half log dilutions and a 40 μL reaction volume. The assay measures the incorporation of radiolabeled ^33P ATP into an N-terminally biotinylated peptide substrate, derived from naturally occurring phosphoacceptor consensus sequence (Biotin-11aa DY*E). Phosphorylated products were detected upon termination of reactions with EDTA and the addition of Streptavidin coated beads. Representative results are in Table II above.
Assay plates: 96-well MultiScreen 0.65 um filter plates (Millipore Cat. No.: MADVNOB10) Streptavidin coated beads: Streptavidin Sepharose™, suspension 5.0 mL, in 50 mM EDTA/PBS diluted (1:100), (Amersham, Cat. No.: 17-5113-01)
Compounds: 10 mM in 100% dimethylsulfoxide (DMSO), final conc.: compound 0.003-100 uM in 10% DMSO
Enzyme: SYK RPA purified, truncated construct of Spleen Tyrosine Kinase aa 360-635, stock solution 1 mg/mL, MW: 31.2 KDa, final conc.:0.0005 μM.
Peptide 1: biotinylated peptide is derived from a naturally occurring phosphor-acceptor consensus sequence (Biotin-EPEGDYEEVLE), special order from QCB, stock solution 20 mM, final conc.: 5.0 μM.
ATP: Adenosine-5′-triphosphate 20 mM, (ROCHE Cat. No.: 93202720), final concentration: 20 μM
Buffer: HEPES: 2-Hydroxyethyl piperazine-2-ethanesulfonic acid (Sigma, Cat. No.: H-3375) final concentration: 50 mM HEPES pH7.5
BSA: Bovine Serum Albumin Fraction V, fatty acid free (Roche Diagnostics GmbH, Cat. No. 9100221) diluted to a final concentration of 0.1%
EDTA: EDTA stock solution 500 mM, (GIBCO, Cat. No.: 15575-038) final concentration: 0.1 mM
DTT: 1,4-Dithiothreitol (Roche Diagnostics GmbH, Cat. No.: 197777), final conc.: 1 mM MgCl2×6H2O: MERCK, Cat. No.: 105833.1000, final concentration: 10 mM
Assay Dilution Buffer (ADB): 50 mM HEPES, 0.1 mM EGTA, 0.1 mM Na Vanadate, 0.1 mM β-glycerophosphate, 10 mM MgCl2, 1 mM DTT, 0.1% BSA, pH 7.5
Bead wash buffer: 10 g/L PBS (Phosphate buffered saline) with 2M NaCl+1% phosphoric acid.
In 40 μL volume, 26 μL of ADB diluted, purified recombinant human SYK360-635 [0.5 nM] was mixed with 4 μL of 10× concentrations of the test compounds, [usually 100 μM-0.003 μM] in [10%] DMSO and the mixture was incubated for 10 min at RT.
The kinase reaction was initiated by the addition of 10 μL 4× substrate cocktail containing the DYE peptide substrate [0 or 5 μM], ATP [20 μM] and ^33PγATP [2 μCi/rxn]. After incubation at 30° C. for 15 min, the reaction was terminated by the transfer of 25 μL pf the reaction sample to a 96 well 0.65 μm Millipore MADVNOB membrane/plate containing 200 μL 5 mM EDTA and 20% Streptavidine coated beads in PBS.
The unbound radionucleotides were washed under vacuum with 3×250 μL 2M NaCl; 2×250 μL 2M NaCl+1% phosphoric acid; 1×250 μL H2O. After the last wash membrane/plates were transferred to an adaptor plate, heat dried for 15 min at 60° C., and 50 μL scintillation cocktail was added to each well and 4 h later the amount of radioactivity was counted in a top counter.
The percent inhibition was calculated based on the uninhibited enzyme rate: % Inhibition=100/(1+(IC50/Inhibitor conc)^n)
The IC50 was calculated using a non-linear curve fit with XLfit software (ID Business Solution Ltd., Guilford, Surrey, UK).

The subject of another assay is RAMOS. The assay can be described thus: RAMOS_V2_IC50. In kind it is cell-based. Particulars: Homo sapiens.
The test system of another assay is human whole blood. Kind of assay: IC50: human whole blood. In kind it is cell-based.

As to `c1ccc(-c2ncc(-c3cc[nH]n3)s2)cc1` [Compound I-1, 2-Phenyl-5-(1H-pyrazol-3-yl)-thiazole], in assay [1], the IC50 (in general, the concentration that inhibits the measured activity by half) is 35.2 µM.

Turning to `CCOC(=O)c1c[nH]nc1-c1nc2ccccn2n1` [Compound I-2, 3-[1,2,4]Triazolo[1,5-a]pyridin-2-yl-1H-pyrazole-4-carboxylic acid ethyl ester], the IC50 is 0.113 µM in assay [1] and more than 34.1 µM in the assay on RAMOS.

For `CC(C)C(=O)Nc1c[nH]nc1-c1nc2ccccc2s1` [Compound I-3, N-(3-Benzothiazol-2-yl-1H-pyrazol-4-yl)-isobutyramide], the figures for the concentration for half-maximal inhibition (IC50) (in assay [1]; in the assay with RAMOS) were 2.08 µM and 5.41 µM, respectively.

In the case of `CC(C)(C)C(=O)Nc1c[nH]nc1-c1nc2ccccc2s1` [Compound I-4, N-(3-Benzothiazol-2-yl-1H-pyrazol-4-yl)-2,2-dimethyl-propionamide], the values for the half-inhibitory concentration (IC50) (in assay [1]; in the assay with RAMOS) were 0.621 µM and 3.83 µM, respectively.

As to `O=C(Nc1c[nH]nc1-c1nc2ccccc2s1)C1CCCC1` [Compound I-5, Cyclopenanecarboxylic acid (3-benzothiazol-2-yl-1H-pyrazol-4-yl)-amide], the figures for the 50% inhibitory concentration (IC50) (in assay [1]; with RAMOS) were 1.28 µM and 4.65 µM, respectively.

As for `O=C(Nc1c[nH]nc1-c1nc2ccccc2s1)C1CC1` [Compound I-6, Cyclopropanecarboxylic acid (3-benzothiazol-2-yl-1H-pyrazol-4-yl)-amide], the 50% inhibitory concentration (IC50) worked out at 2.76 µM in assay [1] and 12 µM with RAMOS.

For `Cc1ccc2sc(-c3n[nH]cc3C(=O)NC(C)(C)CO)cc2c1` [Compound I-9, N-(1-hydroxy-2-methylpropan-2-yl)-3-(5-methylbenzo[b]thiophen-2-yl)-1H-pyrazole-4-carboxamide], the 50% inhibitory concentration (IC50) in assay [1] is more than 10 µM; in the assay with human whole blood, more than 50 µM.

Consider `Cc1ccc2sc(-c3n[nH]cc3C(=O)NC(C)(C)C)cc2c1` [Compound I-10, N-tert-butyl-3-(5-methylbenzo[b]thiophen-2-yl)-1H-pyrazole-4-carboxamide], for which the figures for the 50% inhibitory concentration (IC50) (in assay [1]; with human whole blood) were more than 10 µM and more than 50 µM, respectively.

In the case of `COc1cccc(-c2n[nH]cc2C(=O)NC(C)(C)C)n1` [Compound I-11, N-tert-butyl-3-(6-methoxypyridin-2-yl)-1H-pyrazole-4-carboxamide], the 50% inhibitory concentration (IC50) in assay [1] is 7.95 µM; with RAMOS, more than 34.1 µM.

On to `CCOC(=O)c1c[nH]nc1-c1nc2c(s1)CCCC2` [Compound I-14, ethyl 3-(4,5,6,7-tetrahydrobenzo[d]thiazol-2-yl)-1H-pyrazole-4-carboxylate], for which the values for the 50% inhibitory concentration (IC50) (in assay [1]; with RAMOS) were more than 10 µM and more than 34.1 µM, respectively.

On to `CCOC(=O)c1c[nH]nc1-c1nc2c(s1)CCC2` [Compound I-15, ethyl 3-(5,6-dihydro-4H-cyclopenta[d]thiazol-2-yl)-1H-pyrazole-4-carboxylate], for which the results for the 50% inhibitory concentration (IC50) (in assay [1]; with RAMOS) were more than 10 µM and more than 34.1 µM, respectively.

Consider `CC(C)(C)NC(=O)c1c[nH]nc1-c1nc2c(s1)CCCC2` [Compound I-19, N-tert-butyl-3-(4,5,6,7-tetrahydrobenzo[d]thiazol-2-yl)-1H-pyrazole-4-carboxamide], for which the IC50 was more than 34.1 µM with RAMOS and more than 50 µM in the assay on human whole blood.

`O=C(NC1CCCC1)c1c[nH]nc1-c1nc(-c2ccccc2)cs1` [Compound I-20, N-cyclopentyl-3-(4-phenylthiazol-2-yl)-1H-pyrazole-4-carboxamide]: the figures for the half-maximal inhibitory concentration (IC50) (in assay [1]; in the assay on human whole blood) were 0.215 µM and more than 50 µM, respectively.

Regarding `O=C(NC1CCOCC1)c1c[nH]nc1-c1nc2c(s1)CCC2` [Compound I-22, 3-(5,6-dihydro-4H-cyclopenta[d]thiazol-2-yl)-N-(tetrahydro-2H-pyran-4-yl)-1H-pyrazole-4-carboxamide], the IC50 in assay [1] was 1.99 µM; with RAMOS it was more than 34.1 µM.

On to `O=C(NC1CCOCC1)c1c[nH]nc1-c1nc2c(s1)CCCC2` [Compound I-23, N-(tetrahydro-2H-pyran-4-yl)-3-(4,5,6,7-tetrahydrobenzo[d]thiazol-2-yl)-1H-pyrazole-4-carboxamide], for which the IC50 in assay [1] was 7.87 µM; with RAMOS, more than 34.1 µM.

On to `CN1CCC(NC(=O)c2c[nH]nc2-c2nc3c(s2)CCCC3)CC1` [Compound I-24, N-(1-methylpiperidin-4-yl)-3-(4,5,6,7-tetrahydrobenzo[d]thiazol-2-yl)-1H-pyrazole-4-carboxamide], for which, in the assay with human whole blood, the IC50 was more than 50 µM.

On to `O=C(Nc1c[nH]nc1-c1nc2ccccc2s1)C1CCOCC1` [Compound I-25, Tetrahydro-pyran-4-carboxylic acid (3-benzothiazol-2-yl-1H-pyrazol-4-yl)-amide], for which the IC50 was 4.61 µM in assay [1] and 5.21 µM in the assay with RAMOS.

Take `O=C(Nc1c[nH]nc1-c1nc2ccccc2s1)C1CCC1` [Compound I-26, Cyclobutanecarboxylic acid (3-benzothiazol-2-yl-1H-pyrazol-4-yl)-amide]: the concentration for half-maximal inhibition (IC50) in assay [1] came to 1.23 µM.

As for `CC(=O)OCC(C)(C)C(=O)Nc1c[nH]nc1-c1nc2ccccc2s1` [Compound I-27, Acetic acid 2-(3-benzothiazol-2-yl-1H-pyrazol-4-ylcarbamoyl)-2-methyl-propyl ester], the IC50 was determined as 4.64 µM in assay [1] and 15.5 µM in the assay on RAMOS.

As to `CC(C)(CO)C(=O)Nc1c[nH]nc1-c1nc2ccccc2s1` [Compound I-28, N-(3-Benzothiazol-2-yl-1H-pyrazol-4-yl)-3-hydroxy-2,2-dimethyl-propionamide], the IC50 in assay [1] was determined as 1.13 µM; in the assay on RAMOS it was 6.41 µM.

Regarding `CC(C)NC(=O)c1c[nH]nc1-c1nc2ccccc2[nH]1` [Compound I-36, 3-(1H-Benzoimidazol-2-yl)-1H-pyrazole-4-carboxylic acid isopropylamide], the IC50 in the assay on RAMOS was found to be 0.292 µM; with human whole blood, 2.54 µM.

As to `CC(C)(C)NC(=O)c1c[nH]nc1-c1nc2ccccc2[nH]1` [Compound I-37, 3-(1H-Benzoimidazol-2-yl)-1H-pyrazole-4-carboxylic acid tert-butylamide], the half-maximal inhibitory concentration (IC50) with RAMOS came to 0.14 µM; in the assay on human whole blood, 2.86 µM.

In the case of `O=C(NC1CCOCC1)c1c[nH]nc1-c1nc2ccccc2[nH]1` [Compound I-38, 3-(1H-Benzoimidazol-2-yl)-1H-pyrazole-4-carboxylic acid (tetrahydro-pyran-4-yl)-amide], the IC50 was found to be 0.483 µM in the assay with RAMOS and 0.87 µM with human whole blood.

On to `Cc1cccc2[nH]c(-c3ncsc3Nc3cccnc3)nc12` [Compound I-40, 4-(4-methyl-1H-benzo[d]imidazol-2-yl)-N-(pyridin-3-yl)thiazol-5-amine], for which the results for the IC50 (in assay [1]; in the assay with RAMOS) were 0.487 µM and 0.764 µM, respectively.

Take `c1cncc(Nc2scnc2-c2nc3cnccc3[nH]2)c1` [Compound I-41]: the IC50 is 5.44 µM in assay [1] and more than 31.2 µM in the assay with RAMOS.

As for `CCC(C)(C)Nc1scnc1-c1nc2cc(C)ccc2[nH]1` [Compound I-42, 4-(5-methyl-1H-benzo[d]imidazol-2-yl)-N-tert-pentylthiazol-5-amine], the values for the 50% inhibitory concentration (IC50) (in assay [1]; in the assay on human whole blood) were 1.62 µM and more than 50 µM, respectively.

`Cc1ccc2[nH]c(-c3ncsc3NC3CCCC3)nc2c1` [Compound I-43, N-cyclopentyl-4-(5-methyl-1H-benzo[d]imidazol-2-yl)thiazol-5-amine]: the IC50 is 0.699 µM in assay [1] and more than 34.1 µM with RAMOS.

Take `Cc1ccc2[nH]c(-c3ncsc3NCC(C)C)nc2c1` [Compound I-44, N-isobutyl-4-(5-methyl-1H-benzo[d]imidazol-2-yl)thiazol-5-amine]: the results for the IC50 (in assay [1]; in the assay on RAMOS) were 0.621 µM and 7.98 µM, respectively.

These data come from US9988378B2, “1 H-pyrazole and 4,5-disubstituted thiazole inhibitors of SYK” (Hoffmann-La Roche Inc., priority 2012, dated 2018).
